# Patent publication US8193356B2, “Heterocycle compound, and production process and application thereof” (Aska Pharmaceutical Co., Ltd., priority 2005, dated 2012)
row,melting point [°C],Compound
1,229 to 231,"COc1ccccc1Cc1n[nH]c2c1c(=O)n(-c1cccc(C(F)(F)F)c1)c1ncccc21 (hydrate or solvate) [Example 37, 3-(2-Methoxybenzyl)-5-(3-trifluoromethylphenyl)-1H-pyrazolo[4,3-c][1,8]-naphthyridin-4(5H)-one]"
2,227 to 231,"O=c1c2c(Cc3ccc(C(F)(F)F)cc3)n[nH]c2c2cccnc2n1-c1cccc(OC(F)(F)F)c1 [Example 25, 5-(3-Trifluoromethoxyphenyl)-3-(4-trifluoromethylbenzyl)-1H-pyrazolo[4,3-c][1,8]naphthyridin-4(5H)-one]"
3,150 to 151,"O=c1c2c(CCCCCCc3ccccc3)n[nH]c2c2cccnc2n1-c1ccccc1 [Example 12, 5-Phenyl-3-(6-phenylhexyl)-1H-pyrazolo[4,3-c][1,8]naphthyridin-4(5H)-one]"
4,255 to 257,"O=c1c2c(Cc3ccccc3)n[nH]c2c2ccccc2n1-c1ccccc1 [Example 16, 3-Benzyl-5-phenyl-1H-pyrazolo[4,3-c]quinolin-4(5H)-one]"
5,226 to 228,"O=c1c2c(Cc3ccc(F)cc3)n[nH]c2c2cccnc2n1-c1cccc(OC(F)(F)F)c1 (hydrate or solvate) [Example 32, 3-(4-Fluorobenzyl)-5-(3-trifluoromethoxyphenyl)-1H-pyrazolo[4,3-c][1,8]-naphthyridin-4(5H)-one]"
6,276 to 278,"O=c1c2c(Cc3ccccc3Cl)n[nH]c2c2cccnc2n1-c1cccc(C(F)(F)F)c1 (hydrate or solvate) [Example 39, 3-(2-Chlorobenzyl)-5-(3-trifluoromethylphenyl)-1H-pyrazolo[4,3-c][1,8]-naphthyridin-4(5H)-one]"
7,243 to 245,"COc1ccccc1Cc1n[nH]c2c1c(=O)n(-c1cccc(OC(F)(F)F)c1)c1ncccc21 (hydrate or solvate) [Example 31, 3-(2-Methoxybenzyl)-5-(3-trifluoromethoxyphenyl)-1H-pyrazolo[4,3-c][1,8]-naphthyridin-4(5H)-one]"
8,216 to 219,"O=c1c2c(Cc3ccc(C(F)(F)F)cc3)n[nH]c2c2cccnc2n1-c1ccccc1 [Example 7, 5-Phenyl-3-(4-trifluoromethylbenzyl)-1H-pyrazolo[4,3-c][1,8]naphthyridin-4(5H)-one]"
9,234 to 238,"O=c1c2c(Cc3cccs3)n[nH]c2c2cccnc2n1-c1cccc(OC(F)(F)F)c1 [Example 45, 3-(2-Thienylmethyl)-5-(3-trifluoromethoxyphenyl)-1H-pyrazolo[4,3-c][1,8]-naphthyridin-4(5H)-one]"
10,260 to 264,"O=c1c2c(Cc3ccccc3C(F)(F)F)n[nH]c2c2cccnc2n1-c1cccc(C(F)(F)F)c1 [Example 17, 3-(2-Trifluoromethylbenzyl)-5-(3-trifluoromethylphenyl)-1H-pyrazolo[4,3-c][1,8]naphthyridin-4(5H)-one]"
11,269 to 272,"O=c1c2c(Cc3ccccc3)n[nH]c2c2ncccc2n1-c1ccccc1 (hydrate or solvate) [Example 30, 3-Benzyl-5-phenyl-1H-pyrazolo[4,3-c][1,5]naphthyridin-4(5H)-one]"
12,233 to 235,"CCC(c1ccccc1)c1n[nH]c2c1c(=O)n(-c1ccccc1)c1ncccc21 (centres unmarked) [Example 43, 5-Phenyl-3-(1-phenylpropyl)-1H-pyrazolo[4,3-c][1,8]naphthyridin-4(5H)-one]"
13,280 to 281,"O=c1c2c(CC3CCCCC3)n[nH]c2c2cccnc2n1-c1ccccc1 [Example 13, 3-Cyclohexylmethyl-5-phenyl-1H-pyrazolo[4,3-c][1,8]naphthyridin-4(5H)-one]"
14,226 to 228,"O=c1c2c(Cc3ccccc3)n[nH]c2c2cccnc2n1-c1cccc(C(F)(F)F)c1 (hydrate or solvate) [Example 2, 3-Benzyl-5-(3-trifluoromethylphenyl)-1H-pyrazolo[4,3-c][1,8]-naphthyridin-4(5H)-one]"
15,303 to 305,"O=c1c2c(Cc3cccc(C(F)(F)F)c3)n[nH]c2c2cccnc2n1-c1ccccc1 [Example 9, 5-Phenyl-3-(3-trifluoromethylbenzyl)-1H-pyrazolo[4,3-c][1,8]naphthyridin-4(5H)-one]"
16,249 to 252,"Cc1ccccc1Cc1n[nH]c2c1c(=O)n(-c1cccc(C(F)(F)F)c1)c1ncccc21 (hydrate or solvate) [Example 40, 3-(2-Methylbenzyl)-5-(3-trifluoromethylphenyl)-1H-pyrazolo[4,3-c][1,8]-naphthyridin-4(5H)-one]"
17,145 to 148,"O=c1c2c(Cc3ccc(C(F)(F)F)cc3)n[nH]c2c2cccnc2n1-c1cccc(C(F)(F)F)c1 [Example 19, 3-(4-Trifluoromethylbenzyl)-5-(3-trifluoromethylphenyl)-1H-pyrazolo[4,3-c][1,8]naphthyridin-4(5H)-one]"
18,282 to 284,"O=c1c2c(Cc3ccccc3[N+](=O)[O-])n[nH]c2c2cccnc2n1-c1cccc(C(F)(F)F)c1 (hydrate or solvate) [Example 41, 3-(2-Nitrobenzyl)-5-(3-trifluoromethylphenyl)-1H-pyrazolo[4,3-c][1,8]-naphthyridin-4(5H)-one]"

row,melting point [°C],Compound
1,247 to 251,"O=c1c2c(Cc3ccsc3)n[nH]c2c2cccnc2n1-c1cccc(OC(F)(F)F)c1 [Example 46, 3-(3-Thienylmethyl)-5-(3-trifluoromethoxyphenyl)-1H-pyrazolo[4,3-c][1,8]-naphthyridin-4(5H)-one]"
2,252 to 255,"O=c1c2c(Cc3ccccc3C(F)(F)F)n[nH]c2c2cccnc2n1-c1cccc(OC(F)(F)F)c1 [Example 23, 5-(3-Trifluoromethoxyphenyl)-3-(2-trifluoromethylbenzyl)-1H-pyrazolo[4,3-c][1,8]naphthyridin-4(5H)-one]"
3,228 to 234,"O=c1c2c(CC3CCOCC3)n[nH]c2c2cccnc2n1-c1ccccc1 (hydrate or solvate) [Example 44, 5-Phenyl-3-(tetrahydro-2H-pyran-4-ylmethyl)-1H-pyrazolo[4,3-c][1,8]naphthyridin-4(5H)-one]"
4,274 to 276,"O=c1c2c(Cc3ccccc3[N+](=O)[O-])n[nH]c2c2cccnc2n1-c1cccc(OC(F)(F)F)c1 (hydrate or solvate) [Example 35, 3-(2-Nitrobenzyl)-5-(3-trifluoromethoxyphenyl)-1H-pyrazolo[4,3-c][1,8]-naphthyridin-4(5H)-one]"
5,216 to 218,"O=c1c2c(Cc3ccc(OC(F)(F)F)cc3)n[nH]c2c2cccnc2n1-c1ccccc1 (hydrate or solvate) [Example 6, 5-Phenyl-3-(4-trifluoromethoxybenzyl)-1H-pyrazolo[4,3-c][1,8]naphthyridin-4(5H)-one]"
6,249 to 251,"O=c1c2c(Cc3ccccc3)n[nH]c2c2cccnc2n1-c1cccc(OC(F)(F)F)c1 (hydrate or solvate) [Example 1, 3-Benzyl-5-(3-trifluoromethoxyphenyl)-1H-pyrazolo[4,3-c][1,8]-naphthyridin-4(5H)-one]"
7,243 to 245,"O=c1c2c(Cc3ccc(F)cc3)n[nH]c2c2cccnc2n1-c1cccc(C(F)(F)F)c1 (hydrate or solvate) [Example 38, 3-(4-Fluorobenzyl)-5-(3-trifluoromethylphenyl)-1H-pyrazolo[4,3-c][1,8]-naphthyridin-4(5H)-one]"
8,263 to 265,"COCc1n[nH]c2c1c(=O)n(-c1ccccc1)c1ncccc21 (hydrate or solvate) [Example 10, 3-(Methoxymethyl)-5-phenyl-1H-pyrazolo[4,3-c][1,8]naphthyridin-4(5H)-one]"
9,233 to 236,"O=c1c2c(Cc3ccccc3OC(F)(F)F)n[nH]c2c2cccnc2n1-c1cccc(OC(F)(F)F)c1 [Example 26, 3-(2-Trifluoromethoxybenzyl)-5-(3-trifluoromethoxyphenyl)-1H-pyrazolo[4,3-c][1,8]naphthyridin-4(5H)-one]"
10,284 to 287,"O=c1c2c(Cc3ccccc3)n[nH]c2c2cnccc2n1-c1ccccc1 [Example 15, 3-Benzyl-5-phenyl-1H-pyrazolo[4,3-c][1,6]naphthyridin-4(5H)-one]"
11,267 to 268,"CC(c1ccccc1)c1n[nH]c2c1c(=O)n(-c1ccccc1)c1ncccc21 (centres unmarked) (hydrate or solvate) [Example 11, 5-Phenyl-3-(1-phenylethyl)-1H-pyrazolo[4,3-c][1,8]naphthyridin-4(5H)-one]"
12,240 to 242,"Cc1ccccc1Cc1n[nH]c2c1c(=O)n(-c1cccc(OC(F)(F)F)c1)c1ncccc21 (hydrate or solvate) [Example 34, 3-(2-Methylbenzyl)-5-(3-trifluoromethoxyphenyl)-1H-pyrazolo[4,3-c][1,8]-naphthyridin-4(5H)-one]"
13,206 to 208,"O=c1c2c(Cc3cccc(C(F)(F)F)c3)n[nH]c2c2cccnc2n1-c1cccc(C(F)(F)F)c1 [Example 18, 3-(3-Trifluoromethylbenzyl)-5-(3-trifluoromethylphenyl)-1H-pyrazolo[4,3-c][1,8]naphthyridin-4(5H)-one]"
14,129 to 132,"O=c1c2c(Cc3ccc(OC(F)(F)F)cc3)n[nH]c2c2cccnc2n1-c1cccc(OC(F)(F)F)c1 [Example 28, 3-(4-Trifluoromethoxybenzyl)-5-(3-trifluoromethoxyphenyl)-1H-pyrazolo[4,3-c][1,8]naphthyridin-4(5H)-one]"
15,235 to 237,"CC(c1ccccc1)c1n[nH]c2c1c(=O)n(-c1cccc(C(F)(F)F)c1)c1ncccc21 (centres unmarked) [Example 42, 3-(1-Phenylethyl)-5-(3-trifluoromethylphenyl)-1H-pyrazolo[4,3-c][1,8]naphthyridin-4(5H)-one]"
16,134 to 137,"O=c1c2c(Cc3ccc(OC(F)(F)F)cc3)n[nH]c2c2cccnc2n1-c1cccc(C(F)(F)F)c1 [Example 22, 3-(4-Trifluoromethoxybenzyl)-5-(3-trifluoromethylphenyl)-1H-pyrazolo[4,3-c][1,8]naphthyridin-4(5H)-one]"
17,300 to 302,"Cc1ccc2c3[nH]nc(Cc4ccccc4)c3c(=O)n(-c3ccccc3)c2n1 (hydrate or solvate) [Example 3, 3-Benzyl-7-methyl-5-phenyl-1H-pyrazolo[4,3-c][1,8]-naphthyridin-4(5H)-one]"
